According to patent US9708289B2, “Imidazole diketone compound and use thereof” (HINOVA PHARMACEUTICALS INC., priority 2013, dated 2017):

How the values were obtained:
[1] = Evaluation of pharmacokinetics in mice; type: in vivo, Kunming mice (KM mice); details: 10 mg/kg intragastric; for Tmax: Kunming (KM), mouse, po; for Tmax / Cmax: male KM mice, plasma; for Cmax compared with undeuterated compound 10: mice
Method: 10 mg/kg compound 10, 14, 17, 20 were intragastrically administered to Healthy Kunming mice (KM mice), male, weighing 18-20 g. Compounds were dissolved in DMSO:PEG400:H2O 1:5:14. The volume of administration was 10 mL/kg. Before testing, the mice fasted for 12 h and drunk water ad libitum. Then, the mice were fed together at 2 h after administration. 0.3 mL of blood were took from 3 mice through retrobulbar venous plexus at 0.5, 1.0, 2.0, 4.0, 6.0 and 24 h after administration, placed in heparinized tubes, and centrifuged for 5 min at 11000 rpm. The plasma was separated and frozen in a refrigerator at −20° C. 100 uL of serum was transferred with a pipettor into a clean plastic centrifuge tube marked with compound's name and time point, and diluted with acetonitrile (CH3CN) and centrifuged. The concentration of drug was analyzed by LC-MS. Serum was stored at −80° C. before analysis. The pharmacokinetic parameters of deuterated compound (compound 14, 17, and 20) and undeuterated compound (compound 10) were show in following table.

[2] = Evaluation of pharmacokinetics in rats; type: in vivo, SD rats; details: 10 mg/kg intragastric; for AUCINF_obs / Tmax / AUC(0-t) / MRT / half-life / Cmax: male SD rats, mean, n = 4
Method: 10 mg/kg compound 10, and 14 were intragastrically administered to SD rats male, weighing […]. Compounds were dissolved in DMSO:PEG400:H2O 1:5:14. The volume of administration was 10 mL/kg. Conventional methods were used for the results evaluation.

[3] = tested on: human prostate cancer LNCaP; experiment: Inhibition of the growth of prostate cancer cells (MTT, R1881-stimulated); type: cell-based; details: for IC50: Homo sapiens, R1881 added, 96 hours, MTT, read-out: IC50, inhibition activity on LNCap/AR cell
Method: The ability of compounds to inhibit the growth of prostate cancer cells was tested:
First, the human prostate cancer LNCaP (purchased from ATCC, USA) was transferred to a RPM11640 culture medium containing 10% charcoal-stripped fetal bovine serum (FBS). After cultured for three days, the cells were digested with 0.25% trypsin and counted through trypan blue staining. The cells were plated, with 100 μL cell suspension containing 4000 cells per well. 200 μL medium was added to the wells around the cell plate for avoiding edge effects.
The next day, 6 drug concentrations was prepared (48.6 μM, 19.44 μM, 7.776 μM, 3.11 μM, 1.24 μM, 0.5 μM) before administration, and 100 μL of corresponding compound at corresponding concentration was added into each well of a cell plate. The cell plate was placed in a cell incubator for 30 min, 10 μL of 4 nM R1881 was added into each well and homogeneously mixed. Upon the addition of R1881, the cell plate was placed in a cell incubator and incubated at 37° C., under 5% CO2 for 96 hours. Afterwards, 40 μL of MTT (prepared in PBS, concentration is 2.5 mg/mL) was added into each wells, and incubated at 37° C. for 2 hours. The supernatant was sucked off, and 100 μL of DMSO was added into each well. The plate was shaken by a vibrator for 10 min for dissolving formazan. The plate was read at 570 nm wavelength using a microplate reader in the unit of OD. The inhibition rate of test compounds was calculated with the following equation: IR (%)=(ODcontrol−ODsample)/(ODcontrol−ODblank)×100%
The inhibition rate curve of test compounds was plotted using the software XLFit (Formula 205), which can calculate the 50% inhibition rate, i.e. IC50.

Row | Compound | Tmax [1] [h] | Cmax [1] [ng/mL] | Cmax compared with undeuterated compound 10 [1] | AUCINF_obs [2] [ng·h/mL] | Tmax [2] [h] | AUC(0-t) ([2]; rat, in vivo, po) [ng·h/mL] | MRT ([2]; rat, in vivo, po) [h] | half-life ([2]; rat, in vivo, po) [h] | Cmax ([2]; rat, in vivo, po, read-out: Cmax) [ng/mL] | AUC relative to compound 10 ([2]; rats) | Cmax relative to compound 10 ([2]; rats) | half-life compared with compound 10 ([2]; rats) | inhibition on the growth of prostate cancer cell compared with compound 10 [3] | IC50 [3] [nM] | Cmax [2] [ng/mL]
1 | [2H]c1cc(C(=O)NC([2H])([2H])[2H])c(F)c([2H])c1N1C(=S)N(c2cnc(C#N)c(C(F)(F)F)c2)C(=O)C12CCC2 [Compound 20, 4-[7-(6-cyano-5-trifluoromethyl-3-pyridyl)-8-oxo-6-thio-5,7-diazaspiro[3,4]-5-octyl]-3,5-bideuterium-2-fluoro-N-trideuteromethyl-benzamide] | 4 | 3940 | significantly increased |  |  |  |  |  |  |  |  |  |  |  | 
2 | [2H]c1cc(C(=O)NC)c(F)c([2H])c1N1C(=S)N(c2cnc(C#N)c(C(F)(F)F)c2)C(=O)C12CCC2 [Compound 17, 4-[7-(6-cyano-5-trifluoromethyl-3-pyridyl)-8-oxo-6-thio-5,7-diazaspiro [3,4]-5-octyl]-3,5-bideuterium-2-fluoro-N-methyl-benzamide] | 6 | 3480 |  |  |  |  |  |  |  |  |  |  |  |  | 
3 | [2H]C([2H])([2H])NC(=O)c1ccc(N2C(=S)N(c3cnc(C#N)c(C(F)(F)F)c3)C(=O)C23CCC3)cc1F [Compound 14, 4-[7-(6-cyano-5-trifluoromethyl-3-pyridyl)-8-oxo-6-thio-5,7-diazaspiro [3, 4]-5-octyl]-2-fluoro-N-trideuterated methyl-benzamide] | 4 | 4480 | significantly increased | 28729 | 3.500 | 24100 | 13 | 8.93 | 1700 | about 2 fold | about 2 fold | longer half-life | better inhibition | 280 | 
4 | CNC(=O)c1ccc(N2C(=S)N(c3cnc(C#N)c(C(F)(F)F)c3)C(=O)C23CCC3)cc1F [Compound 10, 4-[7-(6-cyano-5-trifluoromethyl-3-pyridyl)-8-oxo-6-thio-5,7-diazaspiro [3, 4]-5-octyl]-2-fluoro-N-methyl-benzamide, reference compound] | 6 | 3320 |  | 14752 | 3.500 | 13100 | 10.7 | 7.38 |  |  |  |  |  | 637 | 946.0
